Experimental findings from patent publication US11141374B2, “Natural skin care compositions and methods for treating oxidative stress and restoring skin health” (CODEX BEAUTY CORPORATION, priority 2019, dated 2021) are described below.

In the test the test system is normal human-derived epidermal keratinocytes. Kind of test: in-vitro thymidine dimer assay after UVB, epidermis skin model. The note with it: 7 days treatment, UVB 300 mJ/cm^2; Trolox 50 ug/ml, Aristotelia chilensis 5%, Ugni molinae 4%. Type of test: cell-based. The protocol:
Leaf extracts Aristotelia chilensis and Ugni molinae were evaluated to determine their ability to prevent undesirable thymidine dimer formation upon exposure to UVB radiation. When skin is exposed to UVB radiation, thymidine bases in the DNA can absorb the UVB radiation to form thymidine dimers (also known as thymine dimers) in DNA, complicating the cell's efforts to replicate DNA and to properly function. In this experiment, an in-vitro thymidine dimer assay was performed using a skin model consisting of normal human-derived epidermal keratinocytes cultured to form a multilayered model of the human epidermis. […] The primary antibody was then detected with a secondary antibody conjugated to a fluorescent dye. The membrane was then scanned with an excitation laser and emission filter combo specific to the fluorescent dye, so that the fluorescence intensity of each sample was proportional to the amount of thymidine dimers present in the sample and a lower fluorescence intensity advantageously indicates lower levels of cellular damage from UVB radiation. The results of the thymidine dimer assay are found in Table 1, below, expressed as mean Relative Fluorescence Units (RFU)±standard deviation.

Turning to `Cc1c(C)c2c(c(C)c1O)CCC(C)(C(=O)O)O2` (stereo not shown) [Trolox], the “Corrected RFU (thymidine dimers), mean ± standard deviation” value worked out at 4.380 ± 393.00 RFU.
